Assay results taken from EP0893123A1, “AGENT FOR USE IN THE PREVENTION AND TREATMENT OF DISORDERS ASSOCIATED WITH VARIOUS TYPES OF AGEING” (Peganov, Eduard Maximovich, priority 1995, dated 1997).

Legend:
[1] = test system: pseudomonas aeruginosa strain N 450; experiment: Model of sepsis (intramuscular pseudomonas aeruginosa culture in 10% CaCl2); details: D2O consumed 2 days before and 9 days after infection, fig. 8
[2] = Body weight of old rats during 21 days of drinking water containing D2O; format: in vivo; details: for weight of the animals: experimental group
Protocol: (§1) The experiments were performed on 20 old (29-30 months) outbred female rats. During 21 days control group (9 rats) received usual water as free drinking, and experimental group (11 rats) drank water, containing ? 2O. Control weighing and visual observation of their behaviour was carried out. Then for 6 days both groups received usual water "to wash out " heavy water from the body in order to put both groups in equal conditions in the subsequent experiments. After that the experiment was carried out as follows: each day one control or one experimental animal was narcotised by urethane (1,3 g/kg) and decapitated. The hippocampal slices then were prepared, which were transferred to the special thermostatic chamber, where they were incubated during the experiment. The chamber was perfused at the rate of 2 ml/minute with physiological solution (content in mM: NaCl-124; KCl-5,0; CaCl2-2,5; MgSO4- 2,4; KH2PO4-1,25; NaHCO3-26; glucose-15; pH―7,4-7,5;), saturated with carbogen (95 % O2 and 5 % CO2). The slices were stored for 20-30 minutes at room temperature, then temperature was increased up to 28-29°C. Electrical activity was recorded in 1-1,5 hour after preparation of slices. The recording glass microelectrodes, filled with 2M solution of sodium citrate (electrical resistance 5-25 Mo ? ) were inserted into the layer of pyramidal neurones. Electrical stimulation of Shaffer's collaterals was made through double-barrel glass microelectrodes, filled with physiological solution, with the resistance up to 2 Mo ? , by the rectangular pulses (amplitude up to 40 V, duration 0.2 msec, frequency 0,2-0,3 Hz). Data processing was made on the computer (" Electronics D3-28 ").

staphylococcus toxin = test system: staphylococcus toxin; set-up: species or system outbred white rats; details: rat, in vivo
pneumococcus = experiment: Bacterial shock model (intraperitoneal pneumococcus culture, minimal lethal dose)
hippocampus of old rats = experiment: Long term potentiation (LTP, model of ageing): electrophysiology of hippocampal slices from treated old rats; format: in vivo; set-up: PS amplitude on the average: unit not given here
Excerpt: The following examples illustrate the invention: Example 1. Long term potentiation (LTP, model of ageing) The adequacy of the choice of the model is due the following factors: • LTP phenomenon relates to function of memory, being an initial stage in a chain of processes, resulting in formation of traces of long-term memory, since the impairment of LTP is accompanied on the behavioral level by impairment of memory, first of all on current events (Landfield . W., Lynch G., " Impaired monosynaptic potentiation of in vitro hippocmpal slices aged memory-deficient rats., J. Gerontology, 1977, v.32, 5, pp. 523-533; Landfield P.W., Pilter T.A. Applegate M. D., " The aged hippocampus: A model system for studies on mechanisms of behavioral plasticity and brain ageing) The Hippocampus, 1986, v.3, pp. 323-367). • the decrease of the content of various protein structures in old animals is reported (Monaghan D.T.et al is observed., " Age dependent loss of NMDA receptors in rodent brains ", Soc. Neurosci. Abstr.,1988, v.14, p.486; Angeluoci L., Imperato A.. " Age-dependent loss of muscarinic receptors and cholinergic impairment in the rats brain ", Neuroscience Letters, Suppl. 39, 1990, p. 8), • the degree of dementia was reported to correlate with decrease of the membrane surface density of N-methyl-D-aspartate receptors, responsible for LTP, in patients with SDAT (Represa A., et al., " Is senile dementia of the Alzheimer type associated with hippocampal plasticity", Brain research, 1988, v.457, 355-359). the decrease of the rate of overall protein synthesis and, as a consequence, deficits of various proteins and products of non-protein synthesis is characteristic not only for a brain, but also for all organs and systems and are the mostly ascertained facts, concerning ageing, and recognised markers of ageing (Markides S.C. " Protein synthesis and degradation during aging and senescence ", Biol. Rev., 19836 v.58, 343-422; Rattan S. I., " Ageing and discase: proteins as the molecular link ", Perspect. Biol and Med., 1991, v.34, 4. Pp 526-533).
as §1
Results . On the average in control group weight of the animals was : at the 1-st day 365 ± 37 g, at 21-th day 380 ± 38 g. […]

In the case of deuterium oxide [heavy water], the “delay of lethal outcomes” value [1] is reported as 3 days, the decrease of lethality ([1]; vs control) is reported as 3 times and the “weight of the animals” value ([2]; at 21-th day of drinking water containing D2O) is reported as 375 ± 34 g. The “weight of the animals” value ([2]; at the first day, old (29-30 months) female rats) was 373 ± 25 g, the “differences in animals weight and in the weight increment between the two groups” value ([2]; experimental vs control group, 21 days) was “No statistically significant differences” and the survival of animals (staphylococcus toxin) was 40%. For the same substance, the time of dying (staphylococcus toxin) was “delay of the time of dying”, the “experimental animals still alive” value (pneumococcus; in 48 hours, when 100% of control animals had died, fig. 5) was 50% and the “dying delayed with respect to control animals” value (pneumococcus; pneumococcus culture, 10 mice, D2O drunk 2-4 days before, fig. 5) was “about 24 hours”. For the same substance, the dying delayed (pneumococcus; with additional treatment during shock to maintain blood circulation, fig. 6) was 48 h, the “LTP occurred (share of rats)” value (hippocampus of old rats; 7 of 10 old rats of experimental group) was 70% and the “Focal evoked potentials (FEP) with preserved pre- and postsynaptic components registered (share of HSs)” value (hippocampus of old rats; 12 of 18 experimental hippocampal slices) was 67%. For the same substance, the “spontaneous pulse activity of pyramidal neurons of field CA1 detected (share of HSs)” value (hippocampus of old rats; 13 of 18 experimental hippocampal slices, 21 days D2O, 6 days wash out) was 72%, the “LTP occurred (number of HSs)” value (hippocampus of old rats; LTP = PS amplitude after tetanization increased more than by 25 %, sustained more than 30 minutes) was 10 of 18 and the “increment of the potentiated response” value (hippocampus of old rats; after second tetanization, example of figure 4) was 730%. For the same substance, the “PS amplitude increased on the average (LTP)” value (hippocampus of old rats; after tetanization, experimental group) was 151 % + 26, the “effect of repeated tetanization” value (hippocampus of old rats; all cases, experimental group) was “further increase of the potentiated response” and the “persistence of restored LTP after cancellation of treatment” value (hippocampus of old rats; last three treated animals tested on 25-th, 26-th and 27-th days after D2O cancellation) was “persisted long (about month) after cancellation of treatment”. The “PS amplitude on the average” value (hippocampus of old rats; population spikes in experimental HSs) was 217 ± 55 and the “average increase of amplitude PS (frequency potentiation)” value (hippocampus of old rats; stimulation by frequency of 1 Hz) was 55±31%.
